According to patent US9409952B2, “Peptide-compound cyclization method” (Chugai Seiyaku Kabushiki Kaisha, priority 2011, dated 2016):
Where two headings read alike, the source gives them in different places. Starred links: 1 amine or outer side, 2 acyl side, 3 side chain; linkers in the order of their positions; H or OH if unused. Positions of bridges follow the written chain, without caps; N, C: chain ends. Non-standard residues stand in square brackets, D forms with d. Residues, ends and D or L forms follow the SMILES beside them. ξ: configuration not given here. *: point of attachment. Phe(4-(CH2)5CO) = O=C([C@H](Cc1ccc(CCCCCC(=O)[*:3])cc1)N[*:1])[*:2]; Phe(3-(CH2)4CO) = O=C([C@H](Cc1cccc(CCCCC(=O)[*:3])c1)N[*:1])[*:2]; NMeF = CN[C@@H](Cc1ccccc1)C(=O)O; NMeGABA = CN(CCCC(=O)[*:2])[*:1]; NMeI = CC[C@H](C)[C@H](NC)C(=O)O; 3Pal = N[C@@H](Cc1cccnc1)C(=O)O; NMeβAla = CN(CCC(=O)[*:2])[*:1]; NMeL = CN[C@@H](CC(C)C)C(=O)O; ξNMeF = CNC(Cc1ccccc1)C(=O)O; NMeV = CN[C@H](C(=O)O)C(C)C; NMeA = CN[C@@H](C)C(=O)O; Piperidide = C1CCN(*)CC1; dNMeA = CN[C@H](C)C(=O)O; Sar = CNCC(=O)O; tBu = CC(C)(C)*

Experiments:
[1] = PAMPA (parallel artificial membrane permeability assay); type: in vitro ADME; details: PAMPA
Summary of the method: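 Artificial membrane was 10% (w/v) egg lecithin plus 0.5% (w/v) cholesterol in dodecane on a PVDF filter. A 10 mM DMSO stock was added at 0.5% (v/v) to donor buffer (50 mM MOPSO, pH 6.5, 5.0% glycocholic acid). After 18 h at 37 °C, LC/MS or LC/UV gave donor and acceptor levels for Pe.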

[2] = Metabolic stability in human hepatic microsome; type: in vitro ADME; details: microsomes
[3] = membrane permeation rate (Pe), 50 mM MOPSO buffer pH 6.5 with 5.0% glycocholic acid, 37° C., 18 hours, read-out: iPAMPA Pe
[4] = pH 7.4, human hepatic microsome, NADPH(+), read-out: CL NADPH(+)

SMILES	Papp at 18 hours, 50 µM [1, 3] [×10⁻⁶ cm/s]	microsomal CLint at 1 uM [2, 4] [µL/min/mg]	Papp at 18 hours, 50 µM ([1]; pH 6.5) [×10⁻⁶ cm/s]	microsomal CLint at 1 uM ([2]; human, pH 7.4, CL NADPH(+)) [µL/min/mg]
CC(C)C[C@H]1C(=O)N[C@@H](COC(C)(C)C)C(=O)N(C)CC(=O)N[C@@H]([C@@H](C)O)C(=O)N[C@H](C(=O)N2CCCCC2)CC(=O)N[C@@H](C(C)C)C(=O)N(C)[C@@H](Cc2ccccc2)C(=O)N1C [DP-724] (V[NMeF][NMeL]S(tBu)[Sar]TD-Piperidide; lactam N-7)	20	160	–	–
CC[C@H](C)[C@H]1C(=O)N(C)[C@@H](C)C(=O)N[C@H](C(=O)N2CCCCC2)Cc2ccc(cc2)CCCCCC(=O)N[C@@H]([C@@H](C)O)C(=O)N(C)[C@@H](Cc2ccccc2)C(=O)N(C)[C@@H](CC(C)C)C(=O)N[C@@H](C(C)C)C(=O)N2CCC[C@H]2C(=O)N(C)[C@@H](Cc2ccccc2)C(=O)N[C@@H](CC(C)C)C(=O)N(C)CC(=O)N1C [DP-883] (T[NMeF][NMeL]VP[NMeF]L[Sar][NMeI][NMeA][Phe(4-(CH2)5CO)]-Piperidide; lactam N-11)	14	294	–	–
CC(C)C[C@H]1C(=O)N(C)[C@@H](C(C)C)C(=O)N[C@@H](C(C)C)C(=O)N[C@H](C(=O)N(C)[C@@H](Cc2ccccc2)C(=O)N[C@@H](C)C(=O)N2CCCCC2)CC(=O)N[C@@H](C)C(=O)N[C@@H](Cc2ccccc2)C(=O)N(C)[C@@H](CC(C)C)C(=O)N[C@@H]([C@@H](C)O)C(=O)N(C)[C@@H](Cc2ccccc2)C(=O)NCC(=O)N1C [DP-187] (AF[NMeL]T[NMeF]G[NMeL][NMeV]VD[NMeF]A-Piperidide; lactam N-10)	43	22	–	–
CC[C@H](C)[C@H]1C(=O)N[C@@H](C)C(=O)N(C)[C@@H](CC(C)C)C(=O)N[C@@H](COC(C)(C)C)C(=O)N(C)[C@@H](CC(C)C)C(=O)N[C@H](C(=O)N2CCCCC2)Cc2cccc(c2)CCCCC(=O)N[C@@H](Cc2ccccc2)C(=O)N(C)[C@@H](Cc2ccccc2)C(=O)N(C)[C@@H](CC(C)C)C(=O)N[C@@H]([C@@H](C)O)C(=O)N(C)[C@@H](C)C(=O)N1C [DP-874] (F[NMeF][NMeL]T[NMeA][NMeI]A[NMeL]S(tBu)[NMeL][Phe(3-(CH2)4CO)]-Piperidide; lactam N-11)	0.15	48	–	–
CC(C)C[C@H]1C(=O)N(C)[C@@H](C)C(=O)N[C@H](C(=O)N(C)[C@@H](Cc2ccccc2)C(=O)N(C)[C@@H](Cc2ccccc2)C(=O)N[C@@H](C)C(=O)N2CCCCC2)CC(=O)N(C)[C@H](C)C(=O)N(C)[C@@H](Cc2ccccc2)C(=O)N(C)CC(=O)N[C@@H]([C@@H](C)O)C(=O)N[C@@H](C)C(=O)N(C)[C@@H](C)C(=O)N1C [DP-463] ([dNMeA][NMeF][Sar]TA[NMeA][NMeL][NMeA]D[NMeF][NMeF]A-Piperidide; lactam N-9)	3.1	10	–	–
CC(C)C[C@H]1C(=O)N[C@@H]([C@@H](C)O)C(=O)N(C)[C@@H](C)C(=O)N(C)[C@@H](CC(C)C)C(=O)N(C)[C@@H](Cc2ccccc2)C(=O)N[C@H](C(=O)N2CCCCC2)CC(=O)N(C)CCCC(=O)N(C)[C@@H](C)C(=O)N1C [DP-524] ([NMeGABA][NMeA][NMeL]T[NMeA][NMeL][NMeF]D-Piperidide; lactam N-8)	16	162	–	–
CC(C)C[C@H]1C(=O)NCC(=O)N[C@H](C(=O)N2CCCCC2)CC(=O)N[C@H](C)C(=O)N[C@@H]([C@@H](C)O)C(=O)N(C)[C@@H](C)C(=O)N(C)[C@@H](Cc2ccccc2)C(=O)N[C@@H](COC(C)(C)C)C(=O)N(C)[C@@H](Cc2ccccc2)C(=O)N1C [DP-52] ([dA]T[NMeA][NMeF]S(tBu)[NMeF][NMeL]GD-Piperidide; lactam N-9)	–	–	23	136
CC[C@H](C)[C@H]1C(=O)N[C@@H]([C@@H](C)O)C(=O)N(C)[C@@H](C)C(=O)N(C)[C@@H](CC(C)C)C(=O)N[C@H](C(=O)N2CCCCC2)CC(=O)N(C)CCC(=O)N(C)[C@@H](CC(C)C)C(=O)N[C@@H](CC(C)C)C(=O)N(C)[C@@H](Cc2ccccc2)C(=O)N[C@@H](COC(C)(C)C)C(=O)N(C)C(Cc2ccccc2)C(=O)N1C (stereo partly drawn) [DP-103] ([NMeβAla][NMeL]L[NMeF]S(tBu)[ξNMeF][NMeI]T[NMeA][NMeL]D-Piperidide; lactam N-11)	–	–	19	73
CC(C)C[C@H]1C(=O)N[C@H](C(=O)N2CCCCC2)CC(=O)N(C)[C@H](C)C(=O)N(C)[C@@H](CC(C)C)C(=O)N[C@@H]([C@@H](C)O)C(=O)N(C)[C@@H](CC(C)C)C(=O)N[C@@H](COC(C)(C)C)C(=O)N1C [DP-725] ([dNMeA][NMeL]T[NMeL]S(tBu)[NMeL]D-Piperidide; lactam N-7)	35	138	–	–
CC[C@H](C)[C@@H]1NC(=O)[C@H](Cc2ccccc2)NC(=O)[C@@H](C)N(C)C(=O)C[C@@H](C(=O)N2CCCCC2)NC(=O)[C@H](Cc2ccccc2)N(C)C(=O)[C@H](Cc2ccccc2)NC(=O)[C@H](CC(C)C)NC(=O)[C@H]([C@@H](C)O)NC(=O)[C@H](CC(C)C)NC(=O)[C@H](CC(C)C)N(C)C1=O [DP-338] ([dNMeA]FI[NMeL]LTLF[NMeF]D-Piperidide; lactam N-10)	4.9	146	–	–
CC(C)C[C@@H]1NC(=O)[C@H](Cc2ccccc2)N(C)C(=O)CN(C)C(=O)[C@H]([C@@H](C)O)NC(=O)[C@H](CC(C)C)N(C)C(=O)[C@H](C)NC(=O)C[C@@H](C(=O)N(C)[C@@H](Cc2ccccc2)C(=O)N(C)[C@@H](C)C(=O)N2CCC[C@H]2C(=O)N(C)[C@@H](Cc2ccccc2)C(=O)N[C@@H](C)C(=O)N2CCCCC2)NC1=O [DP-565] (A[NMeL]T[Sar][NMeF]LD[NMeF][NMeA]P[NMeF]A-Piperidide; lactam N-7)	18	56	–	–
CC(C)C[C@@H]1NC(=O)[C@H](CC(C)C)N(C)C(=O)[C@H](CC(C)C)N(C)C(=O)[C@@H](C)N(C)C(=O)C[C@@H](C(=O)N(C)[C@@H](Cc2ccccc2)C(=O)N[C@@H](C)C(=O)N2CCCCC2)NC(=O)[C@H](CC(C)C)N(C)C(=O)[C@H](Cc2ccccc2)NC(=O)[C@H](Cc2ccccc2)N(C)C(=O)[C@H](C)NC(=O)[C@H]([C@@H](C)O)NC1=O [DP-451] ([dNMeA][NMeL][NMeL]LTA[NMeF]F[NMeL]D[NMeF]A-Piperidide; lactam N-10)	35	14	–	–
CC(C)C[C@H]1C(=O)N(C)[C@@H](CC(C)C)C(=O)N[C@H](C(=O)N(C)[C@@H](Cc2ccccc2)C(=O)N[C@@H](C)C(=O)N2CCCCC2)CC(=O)N[C@H](C(C)C)C(=O)N(C)[C@@H](C)C(=O)N(C)[C@@H](Cc2ccccc2)C(=O)N(C)[C@@H](CC(C)C)C(=O)N[C@@H](Cc2cccnc2)C(=O)N(C)CC(=O)N[C@@H](C)C(=O)N1C [DP-591] ([dV][NMeA][NMeF][NMeL][3Pal][Sar]A[NMeL][NMeL]D[NMeF]A-Piperidide; lactam N-10)	26	15	–	–
CC[C@H](C)[C@@H]1NC(=O)[C@H](Cc2ccccc2)N(C)C(=O)[C@@H](C)NC(=O)C[C@@H](C(=O)N2CCCCC2)NC(=O)[C@H](C(C)C)N(C)C(=O)[C@H](Cc2ccccc2)N(C)C(=O)[C@H](COC(C)(C)C)NC(=O)[C@H](CC(C)C)N(C)C(=O)CN(C)C(=O)[C@H]([C@@H](C)O)NC(=O)[C@H](CC(C)C)N(C)C1=O [DP-110] ([dA][NMeF]I[NMeL]T[Sar][NMeL]S(tBu)[NMeF][NMeV]D-Piperidide; lactam N-11)	30	36	–	–
CC(C)C[C@H]1C(=O)N[C@H](C(=O)N2CCCCC2)CC(=O)N[C@H](C)C(=O)N(C)[C@@H](CC(C)C)C(=O)N(C)[C@@H](Cc2ccccc2)C(=O)N(C)[C@@H](CC(C)C)C(=O)N[C@@H]([C@@H](C)O)C(=O)N1C [DP-740] ([dA][NMeL][NMeF][NMeL]T[NMeL]D-Piperidide; lactam N-7)	31	483	–	–
CC(C)C[C@H]1C(=O)N[C@@H](C(C)C)C(=O)N(C)[C@@H](CC(C)C)C(=O)N(C)[C@@H](CC(C)C)C(=O)N[C@H](C(=O)N(C)[C@@H](Cc2ccccc2)C(=O)N[C@@H](C)C(=O)N2CCCCC2)CC(=O)N[C@H](C(C)C)C(=O)N(C)[C@@H](CC(C)C)C(=O)N(C)[C@@H](Cc2ccccc2)C(=O)N(C)[C@@H](CC(C)C)C(=O)N[C@@H](Cc2c[nH]cn2)C(=O)N1C [DP-586] ([dV][NMeL][NMeF][NMeL]H[NMeL]V[NMeL][NMeL]D[NMeF]A-Piperidide; lactam N-10)	0.44	15	–	–
CC[C@H](C)[C@@H]1NC(=O)[C@H](Cc2cccc(Cl)c2)N(C)C(=O)[C@H](CC(C)C)N(C)C(=O)C[C@@H](C(=O)N2CCCCC2)NC(=O)[C@H](CC(C)C)N(C)C(=O)[C@H](CC(C)C)N(C)C(=O)[C@H](CC(C)C)NC(=O)[C@H](C)N(C)C(=O)[C@@H](NC(=O)[C@H](CC(C)C)N(C)C(=O)[C@@H]2CCCN2C(=O)CO)CCCCNC1=O [DP-964, ^HOGly-Pro-MeLeu-*Lys-MeAla-Leu-MeLeu-MeLeu-Asp-piperidine-MeLeu-MePhe(3-Cl)-Ile* (cyclized at two * sites)]	–	–	8.9	38
CC(C)C[C@H]1C(=O)N[C@H](C(=O)N2CCCCC2)Cc2cccc(c2)CCCCC(=O)N(C)[C@@H](Cc2ccccc2)C(=O)NCC(=O)N(C)[C@@H](Cc2ccccc2)C(=O)N(C)[C@@H](CC(C)C)C(=O)N(C)[C@@H](CC(C)C)C(=O)N1C [DP-844] ([NMeF]G[NMeF][NMeL][NMeL][NMeL][Phe(3-(CH2)4CO)]-Piperidide; lactam N-7)	–	–	11	356
